What all share (type): cell-based
Assay [1] has as its target T1, human TLR9 (Homo sapiens, UniProt Q9NR96).
T1 construct: host or cells: HEK-Blue cells
T1 sequence (Q9NR96 26-1032): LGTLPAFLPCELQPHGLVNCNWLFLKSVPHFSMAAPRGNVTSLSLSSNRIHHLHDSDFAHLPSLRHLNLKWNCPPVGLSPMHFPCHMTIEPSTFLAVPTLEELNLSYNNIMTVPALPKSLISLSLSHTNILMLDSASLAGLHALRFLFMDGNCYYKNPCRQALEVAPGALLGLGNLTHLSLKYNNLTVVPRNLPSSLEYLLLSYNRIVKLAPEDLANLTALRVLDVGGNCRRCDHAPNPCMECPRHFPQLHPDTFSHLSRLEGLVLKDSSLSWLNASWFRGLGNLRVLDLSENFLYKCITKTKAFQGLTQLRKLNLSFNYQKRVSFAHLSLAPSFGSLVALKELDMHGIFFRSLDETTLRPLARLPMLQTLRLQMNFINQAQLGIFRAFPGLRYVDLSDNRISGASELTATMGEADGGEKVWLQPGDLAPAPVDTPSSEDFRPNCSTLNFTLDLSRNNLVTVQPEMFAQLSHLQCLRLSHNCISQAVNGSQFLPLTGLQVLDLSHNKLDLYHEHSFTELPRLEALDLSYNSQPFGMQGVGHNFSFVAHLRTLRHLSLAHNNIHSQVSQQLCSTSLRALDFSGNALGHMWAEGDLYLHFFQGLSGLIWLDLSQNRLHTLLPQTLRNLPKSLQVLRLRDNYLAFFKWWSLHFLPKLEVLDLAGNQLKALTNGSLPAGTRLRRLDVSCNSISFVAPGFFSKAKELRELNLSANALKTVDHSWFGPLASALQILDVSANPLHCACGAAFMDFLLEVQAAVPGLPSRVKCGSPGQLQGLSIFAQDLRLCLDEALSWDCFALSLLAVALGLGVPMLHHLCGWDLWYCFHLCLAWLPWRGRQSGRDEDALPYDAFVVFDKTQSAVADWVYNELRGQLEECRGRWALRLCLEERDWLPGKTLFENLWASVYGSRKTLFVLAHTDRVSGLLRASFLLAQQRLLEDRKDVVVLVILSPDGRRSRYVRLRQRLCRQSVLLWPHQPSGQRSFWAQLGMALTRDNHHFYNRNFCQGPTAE
The assay is described as follows: TLR9 inhibition reporter assay (HEK-Blue SEAP). As to conditions: HEK-Blue cells overexpressing human TLR9, stimulated with ODN2006 5 nM, 22 hour incubation. As to the method: (§1) TLR7/8/9 Inhibition Reporter Assays
(§2) HEK-Blue™-cells (Invivogen) overexpressing human TLR7, TLR8 or TLR9 receptors were used for screening inhibitors of these receptors using an inducible SEAP (secreted embryonic alkaline phosphatase) reporter gene under the control of the IFN-β minimal promoter fused to five NF-κB and AP-1-binding sites. Briefly, cells are seeded into Greiner 384 well plates (15000 cells per well for TLR7, 20.000 for TLR8 and 25,000 for TLR9) and then treated with test compounds in DMSO to yield a final dose response concentration range of 0.05 nM-50 μM. After a 30 minute compound pre-treatment at room temperature, the cells are then stimulated with a TLR7 ligand (gardiquimod at a final concentration of 7.5 μM), TLR8 ligand (R848 at a final concentration of 15.9 μM) or TLR9 ligand (ODN2006 at a final concentration of 5 nM) to activate NF-κB and AP-1 which induce the production of SEAP. After a 22 hour incubation at 37° C., 5% CO2, SEAP levels are determined with the addition of HEK-Blue™ Detection reagent (Invivogen), a cell culture medium that allows for detection of SEAP, according to manufacturer's specifications. The percent inhibition is determined as the % reduction in the HEK-Blue signal present in wells treated with agonist plus DMSO alone compared to wells treated with a known inhibitor.
(Reporter assays use an easily measured gene product as a stand-in for the process of interest.)

Assay [2] has as its target T2, human TLR7 (Homo sapiens, UniProt Q9NYK1).
T2 construct: host or cells: HEK-Blue cells
T2 sequence (Q9NYK1 27-1049): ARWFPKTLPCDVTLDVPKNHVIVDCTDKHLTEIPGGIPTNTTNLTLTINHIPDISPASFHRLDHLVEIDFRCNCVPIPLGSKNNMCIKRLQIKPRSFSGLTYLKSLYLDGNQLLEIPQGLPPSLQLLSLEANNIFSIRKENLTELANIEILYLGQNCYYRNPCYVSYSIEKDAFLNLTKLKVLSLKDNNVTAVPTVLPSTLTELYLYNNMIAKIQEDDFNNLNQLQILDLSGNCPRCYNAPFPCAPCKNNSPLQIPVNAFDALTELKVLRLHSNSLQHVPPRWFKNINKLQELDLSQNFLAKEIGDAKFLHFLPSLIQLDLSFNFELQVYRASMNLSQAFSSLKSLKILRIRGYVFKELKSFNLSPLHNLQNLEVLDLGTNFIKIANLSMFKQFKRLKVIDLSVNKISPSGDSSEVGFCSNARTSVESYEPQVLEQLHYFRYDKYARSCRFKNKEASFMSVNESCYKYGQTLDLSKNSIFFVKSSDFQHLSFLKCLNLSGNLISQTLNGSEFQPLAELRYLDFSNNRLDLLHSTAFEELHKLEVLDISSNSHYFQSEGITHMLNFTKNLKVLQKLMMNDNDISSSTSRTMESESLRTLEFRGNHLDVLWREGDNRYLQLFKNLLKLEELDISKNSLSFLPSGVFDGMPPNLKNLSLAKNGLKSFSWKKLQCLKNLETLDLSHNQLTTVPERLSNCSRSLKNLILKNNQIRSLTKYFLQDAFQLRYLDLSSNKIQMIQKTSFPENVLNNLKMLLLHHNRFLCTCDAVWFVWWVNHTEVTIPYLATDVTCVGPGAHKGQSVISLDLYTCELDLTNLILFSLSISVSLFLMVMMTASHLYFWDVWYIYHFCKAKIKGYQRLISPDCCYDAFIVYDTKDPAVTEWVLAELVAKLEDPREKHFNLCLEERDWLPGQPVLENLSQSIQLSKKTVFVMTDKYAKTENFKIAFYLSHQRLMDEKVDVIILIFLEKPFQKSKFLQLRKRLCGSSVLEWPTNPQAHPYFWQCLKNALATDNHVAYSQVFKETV
The assay is described as follows: TLR7 inhibition reporter assay (HEK-Blue SEAP). The note with it: HEK-Blue cells overexpressing human TLR7, stimulated with gardiquimod 7.5 μM, 22 hour incubation. On the procedure:
as §1, §2

Assay [3] concerns the target T3, human TLR8 (Homo sapiens, UniProt Q9NR97).
T3 construct: host or cells: HEK-Blue cells
T3 sequence (Q9NR97 27-1041): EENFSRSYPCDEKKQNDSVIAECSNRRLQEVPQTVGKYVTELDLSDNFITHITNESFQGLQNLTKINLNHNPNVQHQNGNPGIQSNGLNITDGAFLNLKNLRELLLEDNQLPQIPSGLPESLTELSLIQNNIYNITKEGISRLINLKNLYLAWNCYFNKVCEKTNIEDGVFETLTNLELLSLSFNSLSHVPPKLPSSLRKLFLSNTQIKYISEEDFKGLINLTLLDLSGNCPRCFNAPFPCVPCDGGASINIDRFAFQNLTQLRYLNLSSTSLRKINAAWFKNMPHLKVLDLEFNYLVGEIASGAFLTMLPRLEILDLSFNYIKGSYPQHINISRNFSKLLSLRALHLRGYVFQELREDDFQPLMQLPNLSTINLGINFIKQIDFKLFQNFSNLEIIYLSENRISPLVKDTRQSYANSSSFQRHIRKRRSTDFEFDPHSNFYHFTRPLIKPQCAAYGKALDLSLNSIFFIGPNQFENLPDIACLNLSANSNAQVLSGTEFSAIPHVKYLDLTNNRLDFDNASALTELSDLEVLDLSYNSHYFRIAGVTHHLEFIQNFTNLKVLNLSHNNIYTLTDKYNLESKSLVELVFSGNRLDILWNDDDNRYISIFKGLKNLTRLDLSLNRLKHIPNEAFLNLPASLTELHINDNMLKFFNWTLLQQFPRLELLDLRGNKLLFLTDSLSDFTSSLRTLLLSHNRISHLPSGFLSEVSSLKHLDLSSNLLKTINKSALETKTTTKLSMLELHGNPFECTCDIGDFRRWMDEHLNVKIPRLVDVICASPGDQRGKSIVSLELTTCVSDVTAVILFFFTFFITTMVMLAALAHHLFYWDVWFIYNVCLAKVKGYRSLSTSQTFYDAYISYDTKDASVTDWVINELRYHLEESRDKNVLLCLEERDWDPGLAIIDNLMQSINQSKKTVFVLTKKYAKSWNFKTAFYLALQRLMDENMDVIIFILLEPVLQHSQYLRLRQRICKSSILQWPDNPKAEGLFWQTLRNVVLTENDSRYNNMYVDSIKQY
The assay is described as follows: TLR8 inhibition reporter assay (HEK-Blue SEAP). As to conditions: HEK-Blue cells overexpressing human TLR8, stimulated with R848 15.9 μM, 22 hour incubation. On the procedure:
as §1, §2

Usually IC50 stands for the concentration that inhibits the measured activity by half. The low end stands for greater potency in that assay, the high end for weaker potency in that assay. With `Cc1c(-c2[nH]c3ccc(OCC4CN(CC(C)(C)O)C4)cc3c2C(C)C)cn2cnnc2c1C` [Example 28, 1-(3-(((2-(7,8-dimethyl-[1,2,4]triazolo[4,3-a]pyridin-6-yl)-3-isopropyl-1H-indol-5-yl)oxy)methyl)azetidin-1-yl)-2-methylpropan-2-ol], the 50% inhibitory concentration (IC50) in assay [1] came to 1250 nM; in assay [2], 6.1 nM; in assay [3], 21.7 nM.
On to `Cc1cc(-c2[nH]c3ccc(OC4CCN(C)CC4)cc3c2C(C)C)cc(C)n1` [Example 29, 2-(2,6-dimethylpyridin-4-yl)-3-isopropyl-5-((1-methylpiperidin-4-yl)oxy)-1H-indole], for which the half-maximal inhibitory concentration (IC50) was determined as 379 nM in assay [1], 1.3 nM in assay [2] and 0.7 nM in assay [3].
For `Cc1cc(-c2[nH]c3ccc(OCC4CCCN(C)C4)cc3c2C(C)C)cc(C)n1` (stereo not drawn) [Example 30, 2-(2,6-dimethylpyridin-4-yl)-3-isopropyl-5-((1-methylpiperidin-3-yl)methoxy)-1H-indole] the same measures were 304 nM, 2.3 nM and 2.6 nM.
For `Cc1cc(-c2[nH]c3ccc(OC4CCN(C(C)C)CC4)cc3c2C(C)C)cc(C)n1` [Example 31, 2-(2,6-dimethylpyridin-4-yl)-3-isopropyl-5-((1-isopropylpiperidin-4-yl)oxy)-1H-indole] the same measures were 530 nM, 2.9 nM and 1 nM.
Consider `Cc1cc(-c2[nH]c3ccc(OC4CCN(C)CC4)cc3c2C(C)C)cn2ncnc12` [Example 32, 6-(3-isopropyl-5-((1-methylpiperidin-4-yl)oxy)-1H-indol-2-yl)-8-methyl-[1,2,4]triazolo[1,5-a]pyridine], for which the half-inhibitory concentration (IC50) turned out to be 1620 nM in assay [1], 0.9 nM in assay [2] and 1 nM in assay [3].
Taken in the same sequence, the figures for `Cc1cc(-c2[nH]c3ccc(OCC4CCN(C)CC4)cc3c2C(C)C)cc(C)n1` [Example 33, 2-(2,6-dimethylpyridin-4-yl)-3-isopropyl-5-((1-methylpiperidin-4-yl)methoxy)-1H-indole] were 502 nM, 2.8 nM and 2.6 nM.
Take `Cc1cc(-c2[nH]c3ccc(OCC4CCN(C)CC4)cc3c2C(C)C)cn(C)c1=O` [Example 34, 5-(3-isopropyl-5-((1-methylpiperidin-4-yl)methoxy)-1H-indol-2-yl)-1,3-dimethylpyridin-2(1H)-one]: the half-maximal inhibitory concentration (IC50) in assay [1] came out at 5550 nM; in assay [2], 2.4 nM; in assay [3] it was 1.6 nM.
Regarding `Cc1cc(-c2[nH]c3ccc(OCC4CCN(C(C)C)CC4)cc3c2C(C)C)cc(C)n1` [Example 35, 2-(2,6-dimethylpyridin-4-yl)-3-isopropyl-5-((1-isopropylpiperidin-4-yl)methoxy)-1H-indole], the concentration for half-maximal inhibition (IC50) in assay [1] stood at 317 nM; in assay [2], 4.9 nM; in assay [3], 2.7 nM.
For the compound `Cc1cc(-c2[nH]c3ccc(OCC4CCN(C(C)C)CC4)cc3c2C(C)C)cn(C)c1=O` [Example 36, 5-(3-isopropyl-5-((1-isopropylpiperidin-4-yl)methoxy)-1H-indol-2-yl)-1,3-dimethylpyridin-2(1H)-one], the IC50 in assay [1] is 10600 nM; in assay [2], 5.6 nM; in assay [3] it was 2.4 nM.
Turning to `Cc1cc(-c2[nH]c3ccc(O[C@H]4CCCN(C)C4)cc3c2C(C)C)cn(C)c1=O` [Example 37, (S)-5-(3-isopropyl-5-((1-methylpiperidin-3-yl)oxy)-1H-indol-2-yl)-1,3-dimethylpyridin-2(1H)-one], the IC50 in assay [1] amounted to 46800 nM; in assay [2], 12.8 nM; in assay [3], 56.3 nM.
For `Cc1cc(-c2[nH]c3ccc(O[C@H]4CCCN(C)C4)cc3c2C(C)C)cn2ncnc12` [Example 38, (S)-6-(3-isopropyl-5-((1-methylpiperidin-3-yl)oxy)-1H-indol-2-yl)-8-methyl-[1,2,4]triazolo[1,5-a]pyridine] the same measures were 3640 nM, 3.6 nM and 27 nM.
For `Cc1cc(-c2[nH]c3ccc(OC4CCN(C5CCOCC5)CC4)cc3c2C(C)C)cn(C)c1=O` [Example 39, 5-(3-isopropyl-5-((1-(tetrahydro-2H-pyran-4-yl)piperidin-4-yl)oxy)-1H-indol-2-yl)-1,3-dimethylpyridin-2(1H)-one] the same measures were 8190 nM, 2.5 nM and 0.5 nM.

Values taken from patent US12030878B2 (BRISTOL-MYERS SQUIBB COMPANY, priority 2017, dated 2024).
